The text below walks through data of patent US20260125426A1, “CYCLIC CELL-PENETRATING PEPTIDES AND USES THEREOF” (Ohio State Innovation Foundation, priority 2022, published 2026).

Several values for one entry are separate records, joined by “and”; a condition that tells them apart may be missing. Identical values can stand only once. Bounds are passed on as bounds.

Data set [1] can be described thus: Proteolytic stability in 25% human serum (UPLC-MS). The conditions noted are these: 100 μM peptide, 25% human serum in PBS, 37° C.; read-out: Serum t1/2. Format: in vitro ADME. The procedure: Proteolytic Stability of BCP4, BCP16, and pBCP427-4. BCPs (100 μM) were incubated in 25% human serum diluted in phosphate-buffered saline for 24 h at 37° C. One hundred-μL aliquots were withdrawn from the mixture at various time points and mixed with 200 μL of 1:1 (v/v) 15% trichloroacetic acid in methanol and acetonitrile. The samples were centrifuged for 5 min in a microcentrifuge and stored at 4° C. until analysis by UPLC-MS equipped with a C-18 column. The column was eluted with a linear gradient of 5-100% acetonitrile in water containing 0.1% TFA over 7.5 min and the eluant was monitored at 214 nm. The area underneath the peak for any remaining BCP was integrated and compared to that at time 0 and the percentage of remaining BCP was plotted as a function of the incubation time. When integration of the UV absorbance was not possible due to overlapping of the peptide signal with that of serum proteins, the signal abundance from the mass spectrum was used to estimate the % peptide remaining.
Proteolytic Stability of pBCP427-4 and pBCP427-4Ala. BCPs (100 μM) were incubated in 25% human serum diluted in phosphate-buffered saline for 24 h at 37° C. […] The column was eluted with a linear gradient of 5-100% acetonitrile in water containing 0.1% TFA over 7.5 min and the eluant was monitored at 214 nm.

Data set [2] deals with HeLa cells. The data set is described as follows: Flow cytometry of HeLa cells, cytosolic entry of NF-labeled peptides. As to conditions: for MFI^NF (Cytosolic Entry): 1% FBS, relative to CPP12 (100%). Format: cell-based. How it is done:
Flow cytometry. HeLa cells were cultured in 12-well plates (1.5×10^5 cells/well) overnight. The following day, cells were incubated with 5 μM fluorescently labeled peptide for 2 h in DMEM supplemented with 1% FBS and 1% antibiotic solution. DMSO was used as a negative control. After incubation, cells were detached from plate with 350 μL of 0.25% Trypsin-EDTA solution, diluted with Dulbecco's phosphate buffered saline (DPBS), and pelleted at 300 g for 5 min. Cells were washed twice with DPBS, resuspended in DPBS, and analyzed on a BD FACS LSR II flow cytometer.
To evaluate their cell entry efficiencies, the BCPs and pBCPs were labeled with tetramethylrhodamine (TMR) or naphthofluorescein (NF) on a C-terminal lysine residue (FIGS. 2A, 2B, and 4). […] The labeled peptides were purified again by reversed-phase HPLC and their authenticity was confirmed by high-resolution mass spectrometry.
HeLa cells were treated with 5 μM dye-labeled BCPs (or pBCPs), CPP12, Tat, or DMSO (equal volume) for 2 h at 37° C., washed to remove any peptides in the medium, and analyzed by flow cytometry. The mean fluorescence intensity (MFI) value of TMR (which is pH insensitive) reflects the total amount of CPP inside the HeLa cells (total cellular uptake). On the other hand, NF is a pH sensitive dye, having an apparent pKa of 7.8. NF is unprotonated and fluorescent inside the neutral environment of the cytosol (and nucleus) but is nearly completely protonated and nonfluorescent in the acidic environments of endosomes and lysosomes. Thus, the MFI value of NF provides a convenient estimate of the peptides that have reached the cytosol.
Note that cell entry assays were performed by treating HeLa cell with 2 μM naphthofluorescein (NF)-labeled peptide for 2 h at 37° C. Under this condition, the BCPs enter the cell almost exclusively by endocytosis and endosomal escape. A small fraction of the CPP12^NF-treated cells (˜10%) underwent direct translocation of CPP12^NF; this fraction of highly fluorescent cells was not included in the data analysis. The cellular entry of pBCP427-4 was confirmed by live-cell confocal microscopy (FIG. 6).
BCP16a, BCP16b, and pBCP427-4a were labeled with NF and their cytosolic entry efficiencies were assessed by flow cytometry analysis of HeLa cells after treatment with 2 μM peptide at 37° C. for 2 h. […] CPP12 was previously shown to be highly sensitive to serum proteins (Buyanova, M., et al., (2022). Discovery of a Cyclic Cell-Penetrating Peptide with Improved Endosomal Escape and Cytosolic Delivery Efficiency. Molecular pharmaceuties, 19 (5). 1378-1388).

In a further data set the test system is HEK293T cells. The data set is described as follows: Cytotoxicity, Promega CellTiter-Glo 2.0 assay, HEK293T. Format: cell-based. The conditions noted are these: 72 h, read-out: IC50 (concentration at which 50% of cells are nonviable). How it is done: (§1) Cytotoxicity of BCPs. The cytotoxicity of pBCP427-4 and BCP16 was tested 20) against HeLa and HEK293T cell lines by using Promega's Cell-Glo assay. The cells were seeded in a 96-well plate (5000 cells/well) in 100 μL of DMEM supplemented with 10% FBS and 1% penicillin/streptomycin. The following day. 10 μL of peptide of various concentrations was added to the cells. A row of wells was treated with DMSO as a control. After 72 h, all wells were treated with an equal volume (110 μL) of Promega CellTiter-Glo 2.0 assay solution and shaken for 30 min. Luminescent signal was measured on a Tecan Infinite Pro plate reader.

Data set [3] concerns HeLa cells. The data set is described as follows: Cytotoxicity, Promega CellTiter-Glo 2.0 assay, HeLa. Format: cell-based. As to conditions: 72 h, read-out: IC50 (concentration at which 50% of cells are nonviable). How it is done:
as §1

Data set [4] concerns HeLa cells. The data set is described as follows: Live-cell confocal microscopy of HeLa cells. It is filed as cell-based. How it is done:
Confocal microscopy. HeLa cells (5×10^5 cells/mL in 300 μL volume) were cultured overnight in DMEM (10% FBS, 1% antibiotic solution) in a Grenier Bio-One 35/10 mm glass-bottomed microwell dish with four compartments. The following day, cells were incubated with 5 μM fluorescently labeled peptide for 2 h in phenol-red free DMEM (1% FBS, 1% antibiotic solution) and washed with warm media prior to imaging. Cells were imaged on a Nikon A1R live-cell confocal laser scanning microscope (ECLIPSE Ti-E automated, inverted) equipped with a 100× oil objective (1.45 N.A.) and a heated chamber (37° C.) supplied with 5% CO2. TMR-labeled peptides were imaged by excitation with a λEx of 561 nm. Differential interference contrast (DIC) images were obtained to validate the morphology of cells.
The cellular entry of BCP1-3 was further confirmed by live-cell confocal microscopy. HeLa cells were incubated with 5 μM TMR-labeled peptide for 2 h in the presence of 1% FBS in media. The cells were washed twice with fresh media and imaged without fixation.
To assess cellular delivery by confocal microscopy, HeLa cells were cultured overnight in a 4-well, 35-mm glass bottom microscope dish at a density of 50,000 cells/mL (300 μL per well). The following day, the cells were washed twice with DPBS and incubated with 5 μM protein for 4 h in phenol red free DMEM with 1% FBS. […]

Data set [5] has as its system intracellular Keap1-Nrf2 interaction. The data set is described as follows: ARE reporter-HepG2 luciferase assay of CPP/BCP-K1 conjugates. The conditions noted are these: ARE-Reporter HepG2 cells, 10 μM peptide, 18 h. Format: cell-based. How it is done: Cytosolic Delivery of Peptidyl Cargo. […] An important role of Nrf2-ARE pathway in the cellular defense mechanism. Journal of biochemistry and molecular biology, 37(2), 139-1438). Under basal conditions, Nrf2 interacts with Keap1 and is retained in the cytosol or degraded by the proteasome. However, upon blocking the Keap1-Nrf2 interaction, Nrf2 accumulates and translocates into the nucleus, inducing the expression of luciferase.
One hundred μL of ARE-Reporter Hep G2 cells were seeded in a 96-well plate at 5000 cells/well in minimum essential media supplemented with 10% FBS and 1% penicillin/streptomycin. The following day, 10 μL of peptide of various concentrations was added to the cells to give final concentrations of 0.625-10 μM. Cells treated with DMSO were used as a control. After 18 h, the cells were treated with an equal volume (110 μL) of BPS bioscience ONE-Step luciferase assay solution and shaken for 30 min. The luminescent signal was measured on a Tecan Infinite Pro plate reader.

Another data set deals with Keap1 (Homo sapiens, UniProt Q14145). As to conditions: read-out: KD for Keap1; cited from earlier work.
The next data set concerns NIH 3T3 cells. Nature of the data set: Confocal microscopy of NIH 3T3 cells. It is filed as cell-based. The conditions noted are these: 2 μM peptide, 37° C., 2 h. The procedure:
The cytosolic entry efficiencies of CPP12, BCP16a, BCP16b, and pBCP427-4a were also assessed by confocal microscopy of NIH 3T3 cells after treatment with 2 μM peptide at 37° C. for 2 h.

Where [6] appears, read: 2 μM NF-labeled peptide, 2 h, 37° C.

Sequence of Keap1 (Q14145 whole entry, species assumed): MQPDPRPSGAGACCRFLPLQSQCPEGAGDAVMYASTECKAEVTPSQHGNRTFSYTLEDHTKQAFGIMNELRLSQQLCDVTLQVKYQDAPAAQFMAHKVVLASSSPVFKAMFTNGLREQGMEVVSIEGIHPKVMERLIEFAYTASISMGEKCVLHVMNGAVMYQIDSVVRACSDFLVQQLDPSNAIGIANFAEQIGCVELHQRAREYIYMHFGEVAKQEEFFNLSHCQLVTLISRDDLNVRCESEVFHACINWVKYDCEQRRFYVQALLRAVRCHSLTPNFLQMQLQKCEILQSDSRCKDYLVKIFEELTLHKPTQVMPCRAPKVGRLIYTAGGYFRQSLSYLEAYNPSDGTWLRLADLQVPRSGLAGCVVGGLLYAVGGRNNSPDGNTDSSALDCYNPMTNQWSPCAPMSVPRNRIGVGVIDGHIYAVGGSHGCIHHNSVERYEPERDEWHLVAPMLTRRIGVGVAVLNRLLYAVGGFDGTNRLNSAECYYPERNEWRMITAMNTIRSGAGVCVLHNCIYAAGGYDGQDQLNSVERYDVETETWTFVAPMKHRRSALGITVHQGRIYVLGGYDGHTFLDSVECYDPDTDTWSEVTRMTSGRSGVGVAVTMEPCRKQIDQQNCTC

Take `CC(=O)N[C@@H](Cc1ccc(O)cc1)C(=O)NCC(=O)N[C@@H](CCCNC(=N)N)C(=O)N[C@@H](CCCCN)C(=O)N[C@@H](CCCCN)C(=O)N[C@@H](CCCNC(=N)N)C(=O)N[C@@H](CCCNC(=N)N)C(=O)N[C@@H](CCC(N)=O)C(=O)N[C@@H](CCCNC(=N)N)C(=O)N[C@@H](CCCNC(=N)N)C(=O)N[C@@H](CCCNC(=N)N)C(=O)NCCOCCOCC(=O)N[C@@H](CCCCNC(=O)c1ccc2c(c1)C(=O)OC21c2ccc3cc(O)ccc3c2Oc2c1ccc1cc(O)ccc21)C(N)=O` [Tat]: the half-life at 100 μM in data set [1] was < 30 min.

As to CWSNWFCFQRRC [pBCP427-4], the “MFI^NF (Cytosolic Entry)” value with HeLa cells [2] (setting [6]) is 189% and 189 ± 6%. In addition, the “improvement of cytosolic entry efficiency by bismuth cyclization” value in the data set on HeLa cells [2] (2 μM, pBCP427-4 vs pBCP427-4Ala) is ~10 fold. Further, the IC50 in the data set with HEK293T cells was 16 µM; in the data set on HeLa cells [3] it was > 50 µM. Further, the “cellular entry seen by live-cell confocal microscopy” value with HeLa cells [4] (2 or 5 μM TMR-labeled peptide, 2 h, 37° C.) is given as “confirmed”.

In the case of cyclo(GQLDPETGEFL [K1], in data set [5], the “induction of luminescence signal” value is listed as “did not”. Besides, in the data set with Keap1, the Kd was 0.018 µM.

Turning to “pBCP427-4-SEP: fusion protein of pBCP427-4 at the N-terminus of superecliptic-pHluorin (SEQ ID NO: 89) (MGSSGSSCWSNWFCFQRRC)”, the “GFP fluorescence inside the cell (protein delivery)” value in the data set with HeLa cells [4] (5 μM protein, 4 h, 1% FBS) is listed as “intense GFP fluorescence inside the cell”.

Regarding HS-CH2-CO-rRrRCΦ(Bta)φC [BCP16], the values for the IC50 in the data set with HEK293T cells and in the data set on HeLa cells [3] were 14 µM and 49 µM, respectively.

Turning to Ac-cwsnwfcfqrrc [pBCP427-4a], in the data set on HeLa cells [2] (setting [6]), the “MFI^NF (Cytosolic Entry)” value was 33% and 33 ± 1%. The “cytosolic entry efficiency in the presence of 10% FBS” value in the data set with HeLa cells [2] (2 μM NF-labeled peptide, 2 h, 37° C., 10% FBS, relative to CPP12) was 85%. The “cytosolic entry by fluorescence intensity, compared with CPP12” value in the data set with NIH 3T3 cells is listed as “less active than CPP12”.
